Measured values: US20230017786A1, “DEXTR[…] A DISEASE-MODIFYING TREATMENT FOR NEUROPSYCHIATRIC DISORDERS AND DISEASES” (priority 2020, published 2023)
“And” between values parts separate entries of the source, which are not always exact repeats. Equal entries are not always repeated. Structures can show the parent of a compound that is named as a salt.

Experiments:
[1] = tested on: diheteromeric human recombinant NMDAR containing GluN1 plus GluN2A, GluN2B, GluN2C or GluN2D; assay: FLIPR calcium assay, statements for all four NMDAR subtypes together; format: cell-based; conditions: 6 test item concentrations
[2] = target: T1, human NMDA receptor GluN1-GluN2B (Homo sapiens, UniProt Q05586+Q13224); assay: cell-based; format: cell-based
T1 construct: expressed in transfected cells; host or cells: CHO

[3] = target: T2, human GluN1-GluN2C NMDA receptor (Homo sapiens, UniProt Q05586+Q14957); assay: Manual patch clamp on-/off-rate assay, hGluN1/hGluN2C-CHO cells; conditions: for % Current (mean ± SEM): 10/10 μM L-glutamate/glycine induced current, hGluN1/hGluN2C-CHO; for Tau-off: continuous 10/10 μM L-glutamate/glycine; for I2 (% current): current after 50 seconds removal of test item; for Tau-on: 10/10 μM L-glutamate/glycine; for % block of 10/10 μM L-glutamate/glycine induced current: −70 mV, no Mg2+
Protocol: Manual patch clamp recordings occurred at −70 mV. […] Tau-on and tau-off were estimated by curve fitting to first order exponential equations.
Test items were evaluated using a manual patch clamp whole-cell recording methodology, using HEKA Elektronik Patchmaster system, coupled to BioLogic RSC-160 perfusion device (BioLogic, Seyssinet-Pariset, France).
hGluN1/hGluN2C-CHO cells grown on poly-D-lysine coated glass coverslips were studied by manual patch clamp whole cell recording. Extracellular and intracellular solutions for patch clamp recording had following composition:
(§1) Recordings occurred at −70 mV fixed voltage equal to holding potential.
Test item on-/off-rates were measured by curve fitting the development of their induced current block, or relief from it.
At least n=10 independent cells were analysed. […] Time constant of onset (tau-on, seconds) and offset (tau-off, seconds) of test item inhibition of glutamate induced current were calculated using first order exponential equations as shown below:
I(t)=I1+(I2−I1)×(1−e^−t/τoff)

[4] = target: T3, human NMDA receptor GluN1-GluN2D (Homo sapiens, UniProt O15399+Q05586); assay: FLIPR calcium assay, test item effect on L-glutamate CRC, GluN1-GluN2D-CHO; format: cell-based
T3 construct: expressed in transfected cells; host or cells: CHO

[5] = target: T4, human NMDA receptor GluN1-GluN2A (Homo sapiens, UniProt Q05586+Q12879); assay: FLIPR calcium assay, test item effect on L-glutamate CRC, GluN1-GluN2A-CHO; format: cell-based
T4 construct: expressed in transfected cells; host or cells: CHO

[6] = target: T2, human GluN1-GluN2C NMDA receptor; assay: Manual patch clamp trapping assay, hGluN1/hGluN2C-CHO cells; conditions: test item 1 μM, hydrochloride
Description: Manual patch clamp recordings occurred at −70 mV.
hGluN1/hGluN2C-CHO cells grown on poly-D-lysine coated glass coverslips were studied by manual patch clamp whole cell recording.
as §1

[7] = target: T5, human NMDA receptor GluN1-GluN2C (Homo sapiens, UniProt Q05586+Q14957); assay: FLIPR calcium assay, test item effect on L-glutamate CRC, GluN1-GluN2C-CHO; format: cell-based
T5 construct: expressed in transfected cells; host or cells: CHO

[8] = tested on: NMDA receptors of cultured rat cortical neurons; conditions: Mealing et al., 1999; cited from earlier work
[9] = 10 μM test item, offset fitting
[10] = highest affinity for a NMDAR subtype = 100%
[11] = operational analysis for allosteric modulators

T4 sequence (Q12879 23-1464, other chains not shown): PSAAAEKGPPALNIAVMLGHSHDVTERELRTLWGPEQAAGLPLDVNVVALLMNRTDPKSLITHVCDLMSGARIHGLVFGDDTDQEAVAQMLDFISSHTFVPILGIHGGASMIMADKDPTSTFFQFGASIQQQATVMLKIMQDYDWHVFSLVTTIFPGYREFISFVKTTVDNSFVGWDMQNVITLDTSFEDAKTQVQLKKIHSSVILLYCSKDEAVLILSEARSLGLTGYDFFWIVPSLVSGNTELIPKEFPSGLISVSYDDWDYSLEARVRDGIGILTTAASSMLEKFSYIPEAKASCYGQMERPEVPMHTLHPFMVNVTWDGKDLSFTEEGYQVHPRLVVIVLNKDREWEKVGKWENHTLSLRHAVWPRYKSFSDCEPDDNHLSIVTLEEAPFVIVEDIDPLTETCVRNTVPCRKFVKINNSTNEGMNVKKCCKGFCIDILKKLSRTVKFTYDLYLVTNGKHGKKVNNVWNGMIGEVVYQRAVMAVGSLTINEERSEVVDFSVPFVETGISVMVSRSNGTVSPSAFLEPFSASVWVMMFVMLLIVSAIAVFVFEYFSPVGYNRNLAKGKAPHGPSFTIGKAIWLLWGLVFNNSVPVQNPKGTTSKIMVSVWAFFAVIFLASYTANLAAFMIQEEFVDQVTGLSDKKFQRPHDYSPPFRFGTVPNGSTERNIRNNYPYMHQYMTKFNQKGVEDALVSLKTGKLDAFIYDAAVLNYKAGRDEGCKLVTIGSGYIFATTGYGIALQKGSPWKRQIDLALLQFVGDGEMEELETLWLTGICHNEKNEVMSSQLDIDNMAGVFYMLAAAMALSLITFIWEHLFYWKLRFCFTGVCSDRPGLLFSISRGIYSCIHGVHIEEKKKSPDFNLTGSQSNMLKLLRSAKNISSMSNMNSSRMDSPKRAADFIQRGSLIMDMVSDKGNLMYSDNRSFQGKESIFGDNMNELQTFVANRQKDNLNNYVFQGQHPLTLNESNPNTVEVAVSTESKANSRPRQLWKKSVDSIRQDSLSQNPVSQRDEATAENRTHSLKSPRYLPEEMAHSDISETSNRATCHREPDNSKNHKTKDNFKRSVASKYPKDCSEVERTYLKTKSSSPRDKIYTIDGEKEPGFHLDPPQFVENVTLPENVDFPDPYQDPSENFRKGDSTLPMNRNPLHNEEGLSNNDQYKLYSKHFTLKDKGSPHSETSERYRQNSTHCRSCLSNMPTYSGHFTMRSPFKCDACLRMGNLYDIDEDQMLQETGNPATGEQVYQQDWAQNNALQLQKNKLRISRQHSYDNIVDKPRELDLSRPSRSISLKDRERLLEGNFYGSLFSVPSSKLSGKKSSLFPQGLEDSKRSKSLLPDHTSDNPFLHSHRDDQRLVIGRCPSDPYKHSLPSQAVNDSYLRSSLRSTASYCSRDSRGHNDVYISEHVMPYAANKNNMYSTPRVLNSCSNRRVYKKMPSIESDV
T1 sequence (Q13224 27-1484, other chains not shown): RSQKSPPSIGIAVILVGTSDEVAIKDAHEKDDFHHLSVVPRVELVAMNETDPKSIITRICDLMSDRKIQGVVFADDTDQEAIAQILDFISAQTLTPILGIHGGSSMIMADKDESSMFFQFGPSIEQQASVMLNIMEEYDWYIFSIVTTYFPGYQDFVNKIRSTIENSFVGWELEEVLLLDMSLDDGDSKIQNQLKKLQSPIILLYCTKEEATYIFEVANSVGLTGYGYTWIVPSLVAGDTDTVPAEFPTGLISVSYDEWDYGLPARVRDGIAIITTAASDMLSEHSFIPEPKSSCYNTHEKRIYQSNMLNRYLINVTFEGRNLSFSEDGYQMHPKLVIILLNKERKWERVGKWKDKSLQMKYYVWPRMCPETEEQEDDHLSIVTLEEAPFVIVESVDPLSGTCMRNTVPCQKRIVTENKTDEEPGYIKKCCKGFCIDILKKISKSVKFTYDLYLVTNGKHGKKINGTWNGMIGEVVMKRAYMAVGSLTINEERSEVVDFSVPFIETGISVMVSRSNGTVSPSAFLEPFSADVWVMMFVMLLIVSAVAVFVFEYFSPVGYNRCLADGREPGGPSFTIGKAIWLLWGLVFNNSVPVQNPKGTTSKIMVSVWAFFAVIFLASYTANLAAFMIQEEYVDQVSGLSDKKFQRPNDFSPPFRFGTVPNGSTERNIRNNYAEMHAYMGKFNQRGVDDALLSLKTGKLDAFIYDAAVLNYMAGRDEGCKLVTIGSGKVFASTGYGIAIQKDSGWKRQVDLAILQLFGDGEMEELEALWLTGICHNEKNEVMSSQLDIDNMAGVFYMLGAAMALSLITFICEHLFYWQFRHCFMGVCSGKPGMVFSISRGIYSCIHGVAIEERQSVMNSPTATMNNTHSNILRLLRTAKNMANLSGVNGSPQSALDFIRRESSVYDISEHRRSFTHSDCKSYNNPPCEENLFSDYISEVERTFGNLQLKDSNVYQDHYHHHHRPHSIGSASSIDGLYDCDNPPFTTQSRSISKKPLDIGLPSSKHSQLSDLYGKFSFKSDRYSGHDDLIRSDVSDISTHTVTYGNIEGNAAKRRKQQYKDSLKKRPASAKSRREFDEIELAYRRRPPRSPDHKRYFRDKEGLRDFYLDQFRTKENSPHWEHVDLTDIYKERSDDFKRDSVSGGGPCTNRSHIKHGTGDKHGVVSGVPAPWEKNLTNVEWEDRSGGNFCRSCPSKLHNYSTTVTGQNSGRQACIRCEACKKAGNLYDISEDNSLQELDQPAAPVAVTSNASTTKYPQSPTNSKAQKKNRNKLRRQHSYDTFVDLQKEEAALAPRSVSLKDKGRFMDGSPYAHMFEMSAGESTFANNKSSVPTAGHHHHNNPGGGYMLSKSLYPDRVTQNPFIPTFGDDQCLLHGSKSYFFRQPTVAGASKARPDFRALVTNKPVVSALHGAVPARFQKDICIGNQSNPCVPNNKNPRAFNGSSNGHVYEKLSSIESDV
T3 sequence (O15399 28-1336, other chains not shown): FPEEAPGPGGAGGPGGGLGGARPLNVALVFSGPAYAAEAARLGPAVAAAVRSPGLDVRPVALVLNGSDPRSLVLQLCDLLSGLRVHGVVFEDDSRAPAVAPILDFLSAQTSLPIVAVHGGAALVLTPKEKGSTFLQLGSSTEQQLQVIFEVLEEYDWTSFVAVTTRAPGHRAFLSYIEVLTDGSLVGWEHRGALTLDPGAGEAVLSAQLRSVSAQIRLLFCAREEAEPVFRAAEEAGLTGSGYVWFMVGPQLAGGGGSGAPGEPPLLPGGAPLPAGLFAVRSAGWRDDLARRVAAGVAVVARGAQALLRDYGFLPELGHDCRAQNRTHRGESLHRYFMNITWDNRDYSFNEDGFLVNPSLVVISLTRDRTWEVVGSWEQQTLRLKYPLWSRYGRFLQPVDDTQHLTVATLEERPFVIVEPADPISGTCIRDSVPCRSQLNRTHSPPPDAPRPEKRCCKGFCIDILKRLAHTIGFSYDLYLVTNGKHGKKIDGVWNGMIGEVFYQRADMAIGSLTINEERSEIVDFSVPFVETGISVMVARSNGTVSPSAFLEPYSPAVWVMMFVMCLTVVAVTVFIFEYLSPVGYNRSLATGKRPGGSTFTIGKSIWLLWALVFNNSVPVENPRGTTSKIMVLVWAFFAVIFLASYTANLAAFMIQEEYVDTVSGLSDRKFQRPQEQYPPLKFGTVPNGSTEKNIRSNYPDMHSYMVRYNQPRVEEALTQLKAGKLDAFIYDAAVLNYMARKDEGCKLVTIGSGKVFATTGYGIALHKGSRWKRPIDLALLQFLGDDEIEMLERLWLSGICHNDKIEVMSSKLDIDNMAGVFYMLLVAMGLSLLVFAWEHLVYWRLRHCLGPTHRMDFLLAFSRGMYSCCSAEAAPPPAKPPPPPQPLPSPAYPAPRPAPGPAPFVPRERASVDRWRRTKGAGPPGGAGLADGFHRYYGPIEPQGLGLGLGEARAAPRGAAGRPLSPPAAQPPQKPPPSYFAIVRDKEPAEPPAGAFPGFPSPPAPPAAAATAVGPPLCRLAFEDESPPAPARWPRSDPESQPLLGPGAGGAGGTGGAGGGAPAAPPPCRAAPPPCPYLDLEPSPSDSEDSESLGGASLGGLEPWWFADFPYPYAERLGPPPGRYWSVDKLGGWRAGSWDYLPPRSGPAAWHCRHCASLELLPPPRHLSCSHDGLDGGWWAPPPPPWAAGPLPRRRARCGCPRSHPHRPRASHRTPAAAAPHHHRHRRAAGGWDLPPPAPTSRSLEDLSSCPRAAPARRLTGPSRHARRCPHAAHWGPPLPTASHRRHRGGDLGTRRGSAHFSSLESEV

CNC1(c2ccccc2Cl)CCCCC1=O (racemic) [(±)-Ketamine, (±)-ketamine hydrochloride]
profile on L-glutamate CRC [1]: insurmountable profile | % affinity ratio [2]: 42% | Kb [2]: 1100 nM | α, estimated cooperativity term [2]: 0.14 | L-glutamate CRC HillSlope ([2]; hydrochloride): 2.0 and 1.4 and 1.1 and 1.2 | % Current (mean ± SEM) ([3]; 0.3 μM test item): 44.2 ± 3.0% | % Current (mean ± SEM) ([3]; 1 μM test item): 74.6 ± 2.2% | I1 (% current) ([3]; 1 μM test item, offset fitting): 28.5 % current | Tau-off ([3]; 1 μM test item, offset fitting): 151.0 s | I2 (% current) ([3]; 1 μM test item, offset fitting): 95.5 % current | Tau-on ([3]; 1 μM test item, onset fitting): 47.1 s | I1 (% current) ([3]; 1 μM test item, onset fitting, current after 30 seconds application of test item): 28.7 % current | % Current (mean ± SEM) ([3]; 3 μM test item): 89.7 ± 0.6% | I1 (% current) [3, 9]: 4.9 % current | Tau-off [3, 9]: 163.2 s | I2 (% current) [3, 9]: 102.9 % current | Tau-on ([3]; 10 μM test item, onset fitting): 9.9 s | I1 (% current) ([3]; 10 μM test item, onset fitting, current after 30 seconds application of test item): 3.6 % current | % block of 10/10 μM L-glutamate/glycine induced current ([3]; test item 0.3 μM, hydrochloride): 44% and 44.2%±3.0% and 44.2% | tau-off, mean of single trace fittings ([3]; test item 1 μM): 151.7 ± 6.3 s | tau-on ([3]; test item 1 μM): 47.1 s | tau-on, average of single trace fittings ([3]; test item 1 μM): 47.3 ± 1.4 s | tau-off ([3]; test item 1 μM, hydrochloride): 151 s | tau-off ([3]; test item 1 μM, listed as (±)-ketamine, hydrochloride): 151.0 s | % block of 10/10 μM L-glutamate/glycine induced current ([3]; test item 1 μM, hydrochloride): 74.6%±2.2% and 75% and 74.6% | % block of 10/10 μM L-glutamate/glycine induced current ([3]; test item 3 μM, hydrochloride): 90% and 89.7%±0.6% and 89.7% | tau-off ([3]; test item 10 μM): 163.2 s | tau-on ([3]; test item 10 μM): 9.9 s | % block of 10/10 μM L-glutamate/glycine induced current ([3]; test item 10 μM, hydrochloride): 97.2%±0.3% and 97% and 97.2% | Kb [4]: 1400 nM | % affinity ratio [4, 10]: 33% | α, estimated cooperativity term [4, 11]: 0.15 | L-glutamate CRC HillSlope ([4]; with test item 49 nM): 1.6 | L-glutamate CRC LogEC50 ([4]; with test item 49 nM): −7.4 | L-glutamate CRC HillSlope ([4]; with test item 195 nM): 1.5 | L-glutamate CRC LogEC50 ([4]; with test item 195 nM): −7.3 | L-glutamate CRC HillSlope ([4]; with test item 781 nM): 1.4 | L-glutamate CRC LogEC50 ([4]; with test item 781 nM): −7.2 | L-glutamate CRC HillSlope ([4]; with test item 3.1 μM): 1.8 | L-glutamate CRC LogEC50 ([4]; with test item 3.1 μM): −7.1 | L-glutamate CRC HillSlope ([4]; with test item 12.5 μM): 1.6 | L-glutamate CRC LogEC50 ([4]; with test item 12.5 μM): −6.9 | L-glutamate CRC HillSlope ([4]; with test item 50 μM): 2.0 | L-glutamate CRC LogEC50 ([4]; with test item 50 μM): −6.7 | Kb [5]: 4300 nM | % affinity ratio [5, 10]: 11% | α, estimated cooperativity term [5, 11]: 0.17 | L-glutamate CRC HillSlope ([5]; with test item 49 nM): 1.2 | L-glutamate CRC LogEC50 ([5]; with test item 49 nM): −6.5 | L-glutamate CRC HillSlope ([5]; with test item 195 nM): 1.2 | L-glutamate CRC LogEC50 ([5]; with test item 195 nM): −6.5 | L-glutamate CRC HillSlope ([5]; with test item 781 nM): 1.0 | L-glutamate CRC LogEC50 ([5]; with test item 781 nM): −6.4 | L-glutamate CRC HillSlope ([5]; with test item 3.1 μM): 1.1 | L-glutamate CRC LogEC50 ([5]; with test item 3.1 μM): −6.4 | L-glutamate CRC HillSlope ([5]; with test item 12.5 μM): 1.3 | L-glutamate CRC LogEC50 ([5]; with test item 12.5 μM): −6.4 | L-glutamate CRC HillSlope ([5]; with test item 50 μM): 1.9 | L-glutamate CRC LogEC50 ([5]; with test item 50 μM): −6.2 | Block trapped (BT), trapping [6]: 86.7% | Block (B) of 10/10 μM L-glutamate/glycine-evoked currents ([6]; listed as (±)-ketamine): 74.0%±1.2% and 74.0% | Block trapped (BT), trapping ([6]; listed as (±)-ketamine): 86.7%±1.8% and 86.7% | Residual block (BR) ([6]; listed as (±)-ketamine): 64.1%±1.3% and 64.1% | Kb [7]: 460 nM | potency with respect to dextromethadone ([7]; from the FLIPR study (Example 1)): ~10 fold | % affinity ratio [7, 10]: 100% | α, estimated cooperativity term [7, 11]: 0.13 | L-glutamate CRC HillSlope ([7]; with test item 49 nM): 1.5 | L-glutamate CRC LogEC50 ([7]; with test item 49 nM): −6.9 | L-glutamate CRC HillSlope ([7]; with test item 195 nM): 1.5 | L-glutamate CRC LogEC50 ([7]; with test item 195 nM): −6.8 | L-glutamate CRC HillSlope ([7]; with test item 781 nM): 1.3 | L-glutamate CRC LogEC50 ([7]; with test item 781 nM): −6.6 | L-glutamate CRC HillSlope ([7]; with test item 3.1 μM): 1.2 | L-glutamate CRC LogEC50 ([7]; with test item 3.1 μM): −6.6 | L-glutamate CRC HillSlope ([7]; with test item 12.5 μM): 2.0 | L-glutamate CRC LogEC50 ([7]; with test item 12.5 μM): −6.7 | L-glutamate CRC HillSlope ([7]; with test item 50 μM): 2.5 | L-glutamate CRC LogEC50 ([7]; with test item 50 μM): −6.4 | trapping [8]: 86.0%
